From US11440916B2, “Selective A2A receptor antagonist” (InxMed (Nanjing) Co., Ltd., priority 2018, dated 2022)
“Also recorded” adds a separate entry of the source. Where two headings read alike, the source gives them in different places.

Legend:
B16-F10 cells = assay: Mouse melanoma lung metastasis model, oral HZ10126; format: in vivo, mice
Experimental: 4.1 Establishment of a Mouse Melanoma Model (6×10^4 Cells/Mouse)
5-week old C58BL/6N mice, half male and half female, were divided into 4 groups, with 10 mice per group. B16-F10 cells were digested and centrifuged, re-suspended in physiological saline and washed once. The cells were counted and adjusted to a cell density of 30×10^4 cells/ml in a volume of 12 ml. 200 μl of the cell suspension was injected into the tail vain of each mouse (Day 1), and the body weight of mice was recorded once every 3 days. On Day 18, the mice were all sacrificed, lungs were removed, and metastasis tumors were counted and weighed. Livers, kidneys and spleens were taken for HE staining to evaluate the toxicity of the drug. The lungs were subjected to immunohistochemistry and stained for CD11b, F4/80 and CD8.
Test drug: HZ10126. 2 mg HZ10126 was dissolved in 80 μl DMSO first, and the resultant solution, while being vortexed, was added dropwise to 10 ml 50% PEG-400 to prepare a 0.2 mg/ml solution.
For the test groups, the HZ10126 solution was intragastrically administered at a dose of 2 mg HZ10126/kg/day. For the control group, an equivalent volume of 50% PGE-400 was administered. From the day of injection of cells, the drug was administered once a day for 18 consecutive days.

A2A receptor = A2A receptor (Homo sapiens, UniProt P29274); assay: biochemical
Experimental: The mixture in the Opti-plate was transferred to the [sequence]-96 GF/B filter plate, which was then washed 9 times with Washing Buffer (500 μl/well), and incubated at 55° C. for 10 min. […] A series of concentrations were established for each compound and the CPM values were plotted versus the concentrations. IC50 values were calculated from the curve obtained.

[1] = Oral bioavailability, AUC, half-life, plasma, brain and liver concentration in mice at 2 mg/kg; format: in vivo; conditions: for AUC(0-t) / half-life / bioavailability: plasma; for bioavailability: read-out: Absolute bioavailability (oral); for Plasma concentration 4 and 6 hours after oral administration: time point not stated
Experimental: HZ10126 and other test compounds were each administered to mice at a dose of 2 mg/kg, and the bioavailability, AUC, plasma concentration, level of brain penetration (i.e. brain concentration) and liver concentration after the oral administration were measured and shown in Table 1. The measurement methods are well known to a person skilled in the art.

[2] = reference [2]; cited from earlier work
[3] = cited from earlier work
[4] = 2 mg/kg oral, 1 h post administration
[5] = 2 mg/kg, 4 h after oral administration
[6] = 2 mg/kg, 6 h after oral administration

Structure (SMILES)	IC50 (A2A receptor)	AUC(0-t) ([1]; mouse, 2 mg/kg, oral)	half-life ([1]; mouse, 2 mg/kg, oral)	bioavailability ([1]; mouse, 2 mg/kg, oral)	Plasma concentration 4 and 6 hours after oral administration ([1]; 2 mg/kg)	other results
Nc1nc2c(cnn2CCc2ccc(C(=O)O)cc2)c2nc(-c3ccco3)nn12 [HZ10126]	1.8 nM	371 ± 62.9 ng·h/mL	4 to 5 h	13.4%		Metastases on the lungs versus control group (B16-F10 cells; Day 18, 2 mg/kg/day intragastric, once a day for 18 days): obviously less than those in the control group; Inhibitory effect on tumor / tumor metastasis (B16-F10 cells; mice, oral 2 mg/kg/day): excellent effect of suppressing tumor metastasis; also recorded: excellent inhibitory effect; Liver concentration/Plasma concentration [1, 4]: 7; Liver concentration/Plasma concentration ([1]; 2 mg/kg oral, 6 h post administration): 24; Plasma concentration after oral administration [1, 5]: 52.0 ± 7.03 ng/mL; Plasma concentration after oral administration [1, 6]: 28.9 ± 9.79 ng/mL; Brain penetration ([1]; 2 mg/kg, oral): no detectable brain concentration; also recorded: No penetration; Kp at 1 h ([1]; mouse, liver/plasma, 2 mg/kg oral, 1 h post administration): 7; Kp at 6 h ([1]; mouse, liver/plasma, 2 mg/kg oral, 6 h post administration): 24
Nc1nc2c(cnn2CCc2ccc(OCC(=O)O)cc2)c2nc(-c3ccco3)nn12 [HZ10136]	1.1 nM	7.42 ± 5.66 ng·h/mL	< 0.5 h	0.73%	2.57 ± 0.10 ng/mL	Liver concentration/Plasma concentration [1, 4]: 1 h post administration: 2.3; Brain penetration ([1]; 2 mg/kg, oral): No penetration
Nc1nc2c(cnn2CCN2CCN(c3ccc(C(=O)O)cc3)CC2)c2nc(-c3ccco3)nn12 [HZ10168]	1.2 nM	93.9 ± 40.8 ng·h/mL			4.50 ± 2.53 ng/mL	
CCOC(=O)c1ccc(CCn2ncc3c2nc(N)n2nc(-c4ccco4)nc32)cc1 [HZ10328]		233 ± 73.5 ng·h/mL	3.03 h			Plasma concentration after oral administration [1, 5]: 4 h: 24.0 ± 8.02 ng/ml
Nc1nc2c(cnn2CCc2ccc(CO)cc2)c2nc(-c3ccco3)nn12 [HZ10330]				0%	Not detected from 1 h after oral administration	Absolute bioavailability (oral) ([1]; 2 mg/kg, oral): does not lead to detectable bioavailability
COCCOc1ccc(N2CCN(CCn3ncc4c3nc(N)n3nc(-c5ccco5)nc43)CC2)cc1 [Preladenant, reference compound]	2.5 nM	285 ± 113 ng·h/mL				half-life [2]: 2.1 h; Plasma concentration after oral administration [1, 6]: 6 h: 6.20 ± 7.27 ng/ml
Nc1nc2c(cnn2CCc2ccccc2)c2nc(-c3ccco3)nn12 [SCH 58261]				~0%	No significant meaningful concentration	half-life ([3]; after intravenous injection, reference [1]): *26.7 min; Oral bioavailability ([3]; after oral administration): barely any oral bioavailability; also recorded: barely has any bioavailability; Brain concentration ([3]; intraperitoneal injection): very low brain concentration; Plasma concentration ([3]; intraperitoneal injection): relatively high plasma concentration; Half-life in the blood ([3]; rats, after intravenous injection): 0.445 h
